Experiment in all cases: ≥ marks a high value that may be exact or a test limit, other limits are often not marked, values filed in µg/mL are converted to µM
Experiment [1] relates to Pseudomonas aeruginosa ATCC 27853.
For experiment [2], the system named is Staphylococcus aureus ATCC 6538P.
Experiment [3] concerns Staphylococcus epidermidis ATCC 12228.
In experiment [4] the test system is Bacillus subtilis ATCC 6633.
Experiment [5] has as its system Shigella dysenteriae ATCC 9752.
The test system of experiment [6] is Klebsiella pneumoniae ATCC 10031.
The test system of experiment [7] is Escherichia coli ATCC 25922.
In experiment [8] the test system is Micrococcus luteus ATCC 10240.
Experiment [9] relates to Salmonella enterica subsp. enterica serovar Typhimurium ATCC 14028.
The test system of experiment [10] is Candida albicans.
The test system of experiment [11] is Aspergillus fumigatus.
The test system of experiment [12] is Klebsiella pneumoniae.
Experiment [13] has as its system Escherichia coli K-12.
Experiment [14] deals with Pseudomonas aeruginosa PAO1.
In experiment [15] the test system is Staphylococcus aureus NCTC 8325-4.
Experiment [16] has as its system Staphylococcus aureus.
Experiment [17] concerns Escherichia coli JM109.
Experiment [18] has as its system Klebsiella pneumoniae ATCC 13883.
Experiment [19] has as its system Streptococcus pyogenes ATCC 19615.
Experiment [20] deals with Staphylococcus aureus ATCC 25923.
Experiment [21] concerns Enterococcus faecalis ATCC 29212.
Experiment [22] has as its system Bacillus subtilis.
The test system of experiment [23] is Escherichia coli.
The subject of experiment [24] is Bacillus cereus AS1.126.
Experiment [25] concerns Staphylococcus aureus AS1.72.
Experiment [26] concerns Klebsiella aerogenes CGMCC 1.876.
Experiment [27] relates to Klebsiella pneumoniae subsp. pneumoniae CGMCC 1.176.
The test system of experiment [28] is Proteus mirabilis CICC 22931.
Experiment [29] has as its system Acinetobacter baumannii CICC 22934.
Experiment [30] deals with Enterococcus faecium CGMCC 1.2334.
The test system of experiment [31] is Pseudomonas aeruginosa CGMCC 1.860.
The test system of experiment [32] is Escherichia coli AS1.349.
The subject of experiment [33] is Lactococcus lactis AS1.1690.
Experiment [34] deals with Enterococcus faecalis CGMCC 1.595.
Experiment [35] concerns Enterobacter cloacae CGMCC 1.58.

≈ marks a conversion by molar mass, not a printed value.

As for `CC(C)C[C@H](NC(=O)[C@H](Cc1c[nH]c2ccccc12)NC(=O)CNC(=O)[C@H](CC(C)C)NC(=O)[C@@H](N)Cc1ccccc1)C(=O)N[C@@H](Cc1ccccc1)C(=O)N[C@@H](CCCCN)C(=O)N[C@@H](Cc1c[nH]c2ccccc12)C(=O)N[C@@H](C)C(=O)N[C@@H](CCCCN)C(=O)N[C@@H](CCCCN)C(N)=O` [FLGWLFKWAKK], the minimum inhibitory concentration (MIC) worked out at 17.6 µM (≈ 25 µg/mL) in experiment [1]; 8.78 µM (≈ 12.5 µg/mL) in experiment [2]; 4.42 µM (≈ 6.3 µg/mL) in experiment [3]; 4.42 µM (≈ 6.3 µg/mL) in experiment [4]; 17.6 µM (≈ 25 µg/mL) in experiment [5]; 8.78 µM (≈ 12.5 µg/mL) in experiment [6]. The MIC was 8.78 µM (≈ 12.5 µg/mL) in [7], 2.18 µM (≈ 3.1 µg/mL) in experiment [8] and 35.1 µM (≈ 50 µg/mL) in experiment [9].

In the case of `N[C@@H](Cc1ccccc1)C(=O)N1CCC[C@H]1C(=O)N[C@@H](Cc1c[nH]c2ccccc12)C(=O)N[C@@H](Cc1c[nH]c2ccccc12)C(=O)N[C@@H](Cc1c[nH]c2ccccc12)C(=O)N1CCC[C@H]1C(=O)N[C@@H](Cc1ccccc1)C(=O)O` [FPWWWPF], the values for the MIC in [10] and in experiment [11] were more than 939 µM and not below 469 µM, respectively.

In the case of `CC[C@H](C)[C@H](N)C(=O)N[C@@H](CCCCN)C(=O)N[C@@H](CCCCN)C(=O)N[C@H](C(=O)N[C@H](C(=O)N[C@@H](CCCCN)C(=O)N[C@@H](CCCCN)C(=O)N[C@H](C(N)=O)[C@@H](C)CC)[C@@H](C)CC)[C@@H](C)CC` [IKKIIKKI], the minimal inhibitory concentration (MIC) in experiment [12] is more than 500 µM; in experiment [13] it was not below 500 µM; in experiment [14], more than 500 µM; in experiment [15], not below 500 µM.

`CC[C@H](C)[C@H](NC(=O)[C@H](C)NC(=O)[C@H](CC(C)C)NC(=O)[C@H](CS)NC(=O)[C@H](Cc1cnc[nH]1)NC(=O)[C@H](C)NC(=O)[C@H](C)NC(=O)[C@H](CS)NC(=O)[C@@H](N)CC(C)C)C(=O)N[C@@H](CC(C)C)C(=O)N[C@@H](CCCN=C(N)N)C(=O)N[C@@H](CCCN=C(N)N)C(N)=O` [LCAAHCLAILRR]: the MIC in [2] was found to be 7.46 µM; in experiment [16] it was 47.8 µM; in [17], 17.9 µM.

Consider `CC[C@H](C)[C@H](NC(=O)[C@H](C)NC(=O)[C@H](CC(C)C)NC(=O)[C@H](CCCN=C(N)N)NC(=O)[C@H](Cc1cnc[nH]1)NC(=O)[C@H](C)NC(=O)[C@H](C)NC(=O)[C@H](CCCN=C(N)N)NC(=O)[C@@H](N)CC(C)C)C(=O)NCC(=O)N[C@@H](CCCN=C(N)N)C(=O)N[C@@H](CCCN=C(N)N)C(N)=O` [LRAAHRLAIGRR], for which the MIC worked out at 4.32 µM (≈ 6 µg/mL) in experiment [2], 46.1 µM (≈ 64 µg/mL) in experiment [16] and 11.5 µM (≈ 16 µg/mL) in [17].

Turning to `CC(C)C[C@H](N)C(=O)N[C@@H](Cc1ccc(O)cc1)C(=O)N[C@@H](CCCN=C(N)N)C(=O)N[C@@H](CCCN=C(N)N)C(=O)N[C@@H](CCCN=C(N)N)C(=O)N[C@@H](Cc1ccccc1)C(=O)N[C@H](C(=O)N[C@H](C(=O)NCC(=O)N[C@@H](CCCN=C(N)N)C(N)=O)C(C)C)C(C)C` [LYRRRFVVGR], the minimal inhibitory concentration (MIC) is 200 µM (≈ 264 µg/mL) in experiment [1]; not below 200 µM in experiment [18]; not below 50 µM in experiment [19]; 25 µM (≈ 33 µg/mL) in [20]; 25 µM (≈ 33 µg/mL) in experiment [21]; not below 50 µM in [22]. The MIC is 200 µM (≈ 264 µg/mL) in [9] and 50 µM (≈ 66 µg/mL) in [23].

In the case of `CC(C)C[C@H](NC(=O)[C@H](CCCCN)NC(=O)[C@H](CCCN=C(N)N)NC(=O)[C@H](Cc1cnc[nH]1)NC(=O)[C@H](C)NC(=O)[C@H](CCCN=C(N)N)NC(=O)[C@H](Cc1cnc[nH]1)NC(=O)CNC(=O)[C@H](Cc1ccccc1)NC(=O)[C@H](CCCN=C(N)N)NC(=O)[C@H](CCCN=C(N)N)NC(=O)CNC(=O)[C@H](Cc1cnc[nH]1)NC(=O)[C@H](CCCN=C(N)N)NC(=O)CNC(=O)[C@@H](NC(=O)[C@H](CCCCN)NC(=O)[C@@H](N)CO)C(C)C)C(=O)O` [SKVGRHGRRFGHRAHRKL], the MIC in [24], in [25], in [26], in experiment [27], in [28] and in [29] was not below 100 µM in each case. For the same compound, the minimum inhibitory concentration (MIC) in experiment [30], in experiment [31], in experiment [32], in experiment [33], in experiment [34] and in experiment [35] was not below 100 µM in each case.

With `CC(C)C[C@H](NC(=O)[C@H](CCCCN)NC(=O)[C@H](CCCN=C(N)N)NC(=O)[C@H](Cc1cnc[nH]1)NC(=O)[C@H](C)NC(=O)[C@H](CCCN=C(N)N)NC(=O)[C@H](Cc1cnc[nH]1)NC(=O)CNC(=O)[C@H](Cc1ccccc1)NC(=O)[C@H](CCCN=C(N)N)NC(=O)[C@H](CCCN=C(N)N)NC(=O)[C@H](CC(C)C)NC(=O)[C@H](Cc1cnc[nH]1)NC(=O)[C@H](CCCN=C(N)N)NC(=O)CNC(=O)[C@@H](NC(=O)[C@H](CCCCN)NC(=O)[C@@H](N)CO)C(C)C)C(=O)O` [SKVGRHLRRFGHRAHRKL], the MIC in experiment [24] is 9.38 µM (≈ 20.7 µg/mL); in [25], 12.5 µM (≈ 27.6 µg/mL); in experiment [26], not below 100 µM; in experiment [27] it was not below 100 µM; in experiment [28], not below 100 µM; in [29] it was not below 100 µM. Also, the minimum inhibitory concentration (MIC) in experiment [30] is 18.8 µM (≈ 41.5 µg/mL); in experiment [31], not below 100 µM; in experiment [32] it was not below 100 µM; in experiment [33], 18.8 µM (≈ 41.5 µg/mL); in experiment [34], 18.8 µM (≈ 41.5 µg/mL); in experiment [35], not below 100 µM.

Take `CC(C)C[C@H](NC(=O)[C@H](CCCCN)NC(=O)[C@H](CCCN=C(N)N)NC(=O)[C@H](Cc1cnc[nH]1)NC(=O)[C@H](C)NC(=O)[C@H](CCCN=C(N)N)NC(=O)[C@H](Cc1cnc[nH]1)NC(=O)[C@H](CC(C)C)NC(=O)[C@H](Cc1ccccc1)NC(=O)[C@H](CCCN=C(N)N)NC(=O)[C@H](CCCN=C(N)N)NC(=O)[C@H](CC(C)C)NC(=O)[C@H](Cc1cnc[nH]1)NC(=O)[C@H](CCCN=C(N)N)NC(=O)CNC(=O)[C@@H](NC(=O)[C@H](CCCCN)NC(=O)[C@@H](N)CO)C(C)C)C(=O)O` [SKVGRHLRRFLHRAHRKL]: the minimal inhibitory concentration (MIC) in experiment [24] is 2.34 µM (≈ 5.31 µg/mL); in experiment [25], 2.34 µM (≈ 5.31 µg/mL); in experiment [26] it was not below 100 µM; in [27] it was not below 100 µM; in [28], not below 100 µM; in experiment [29], not below 100 µM. In addition, the MIC was 3.13 µM (≈ 7.1 µg/mL) in experiment [30]; not below 100 µM in [31]; not below 100 µM in [32]; 4.69 µM (≈ 10.6 µg/mL) in experiment [33]; 4.69 µM (≈ 10.6 µg/mL) in experiment [34]; not below 100 µM in experiment [35].

These data come from DBAASP.
